Results on four compounds are retold here after patent US20180334453A1, “ISOINDOLINE DERIVATIVES” (VIIV HEALTHCARE UK LIMITED, priority 2015, published 2018).

A word on the IC50: it is the midpoint of a concentration-inhibition curve.

The experiment concerns HIV. Description: MT4 assay (anti-HIV activity). The class given is cell-based. The settings on record: HTLV-1 transformed cell line MT-4; luciferase activity measured 96 hours later (cell titer glo); 10 point dose response. How it is done:
Antiviral HIV activity and cytotoxicity values for compounds of the invention from Table 1 were measured in parallel in the HTLV-1 transformed cell line MT-4 based on the method previously described (Hazen et al., 2007, In vitro antiviral activity of the novel, tyrosyl-based human immunodeficiency virus (HIV) type 1 protease inhibitor brecanavir (GW640385) in combination with other antiretrovirals and against a panel of protease inhibitor-resistant HIV (Hazen et al., “In vitro antiviral activity of the novel, tyrosyl-based human immunodeficiency virus (HIV) type 1 protease inhibitor brecanavir (GW640385) in combination with other antiretrovirals and against a panel of protease inhibitor-resistant HIV”, Antimicrob. Agents Chemother. 2007, 51: 3147-3154; and Pauwels et al., “Sensitive and rapid assay on MT-4 cells for the detection of antiviral compounds against the AIDS virus”, J. of Virological Methods 1987, 16: 171-185).
Luciferase activity was measured 96 hours later by adding a cell titer glo (Promega, Madison, Wis.). Percent inhibition of cell protection data was plotted relative to no compound control. Under the same condition, cytotoxicity of the compounds was determined using cell titer Glo™ (Promega, Madison, Wis.). IC50 s were determined from a 10 point dose response curve using 3-4-fold serial dilution for each compound, which spans a concentration range >1000 fold.
These values are plotted against the molar compound concentrations using the standard four parameter logistic equation:
y=((Vmax*x̂n)/(K̂n+x̂n))+Y2
Y2=minimum y n=slope factor
Vmax=maximum y x=compound concentration [M]
On the technique in general: Cellular ATP, detected with luciferase, serves as a proxy for viable cell number.
Regarding `CCO[C@H](C(=O)O)c1c(C)c2c(c(C)c1-c1cc(F)c3c(c1C)CCCO3)CN(C(=O)c1cccc(F)c1)C2` (atropisomer, axis not shown; (M)) [Example 1, (2S)(M)-2-ethoxy-2-((R)-6-(8-fluoro-5-methylchroman-6-yl)-2-(3-fluorobenzoyl)-4,7-dimethylisoindolin-5-yl)acetic Acid], the IC50 is 145 nM.

`Cc1c(-c2c([C@H](OC(C)(C)C)C(=O)O)c(C(F)(F)F)c3c(c2C(F)(F)F)CN(C(=O)c2cccc(F)c2)C3)cc(F)c2c1CCCO2` (atropisomer, axis not shown; (M)) [Example 4, (2S)(M)-2-(tert-butoxy)-2-(6-(8-fluoro-5-methylchroman-6-yl)-2-(3-fluorobenzoyl)-4,7-bisarifluoromethasoindolin-5-yl)acetic Acid]: the IC50 came to 4 nM.

For `Cc1ccc(-c2c([C@H](OC(C)(C)C)C(=O)O)c(C(F)(F)F)c3c(c2C(F)(F)F)CN(C(=O)OCc2ccccc2)C3)cc1` [Example 2, (S)-2-(2-((benzyloxy)carbonyI)-6-(p-tolyl)-4,7-bis(trifluoromethyl)isoindolin-5-yl)-2-(tert-butoxy)acetic Acid], the IC50 is 4400 nM.

On to `Cc1ccc(-c2c([C@H](OC(C)(C)C)C(=O)O)c(C(F)(F)F)c3c(c2C(F)(F)F)CN(C(=O)c2cccc(F)c2)C3)cc1` [Example 3], for which the IC50 amounted to 5 nM.
